Data taken from US20240158446A1, “CYCLIC COMPOUND HAVING SELECTIVE INHIBITORY ACTION ON KRAS OVER HRAS AND NRAS” (CHUGAI SEIYAKU KABUSHIKI KAISHA, priority 2021, published 2024).
Read-outs that look alike come from different tables or passages of the source.

What was measured:
[1] = target: GDP-bound KRAS wild-type protein (Homo sapiens, UniProt P01116); experiment: Binding to KRAS by surface plasmon resonance (SPR), Single Cycle Kinetics; details: GDP-bound KRAS wild-type protein, read-out: KRAS KD
[2] = target: GDP-bound NRAS wild-type protein (Homo sapiens, UniProt P01111); experiment: Binding to NRAS by surface plasmon resonance (SPR), Single Cycle Kinetics; details: for NRAS/KRAS (ratio of KD value for NRAS to KD value for KRAS): SPR, GDP-bound NRAS wild-type protein vs GDP-bound KRAS wild-type protein; for NRAS/KRAS (ratio of KD value with respect to GDP-bound NRAS wild-type protein to KD value with respect to KRAS): SPR KD ratio NRAS/KRAS, class symbols
[3] = target: GDP-bound HRAS wild-type protein (Homo sapiens, UniProt P01112); experiment: Binding to HRAS by surface plasmon resonance (SPR), Single Cycle Kinetics; details: for HRAS/KRAS (ratio of KD value for HRAS to KD value for KRAS): SPR, GDP-bound HRAS wild-type protein vs GDP-bound KRAS wild-type protein; for HRAS/KRAS (ratio of KD value with respect to GDP-bound HRAS wild-type protein to KD value with respect to KRAS): SPR KD ratio HRAS/KRAS, class symbols
[4] = test system: human lung cancer strain NCI-H441;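 further: cell proliferation inhibition after four days measured by CellTiter-Glo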
[5] = SPR, Single Cycle Kinetics, 1:1 binding model
[6] = SPR Single Cycle Kinetics, 1:1 binding model

Sequence of GDP-bound HRAS wild-type protein (P01112 whole entry): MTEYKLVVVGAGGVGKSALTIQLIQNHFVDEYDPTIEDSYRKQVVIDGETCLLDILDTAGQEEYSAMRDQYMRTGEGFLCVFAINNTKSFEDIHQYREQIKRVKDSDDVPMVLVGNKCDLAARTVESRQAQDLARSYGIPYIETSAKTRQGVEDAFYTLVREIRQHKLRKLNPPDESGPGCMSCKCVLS
Sequence of GDP-bound KRAS wild-type protein (P01116 whole entry): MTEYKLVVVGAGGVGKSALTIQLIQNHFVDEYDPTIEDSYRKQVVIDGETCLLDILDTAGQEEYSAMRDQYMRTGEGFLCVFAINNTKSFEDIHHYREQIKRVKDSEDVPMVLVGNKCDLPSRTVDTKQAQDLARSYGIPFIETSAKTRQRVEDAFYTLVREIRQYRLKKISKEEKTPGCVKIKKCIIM
Sequence of GDP-bound NRAS wild-type protein (P01111 whole entry): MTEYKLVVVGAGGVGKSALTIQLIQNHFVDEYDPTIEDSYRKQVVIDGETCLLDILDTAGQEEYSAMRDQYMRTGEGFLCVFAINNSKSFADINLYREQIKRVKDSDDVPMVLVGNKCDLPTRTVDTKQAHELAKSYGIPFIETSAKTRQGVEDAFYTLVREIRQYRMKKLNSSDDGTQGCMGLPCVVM

## CCO[C@@H]1C[C@H]2C(=O)NC3(CCC3)C(=O)N(C)[C@@H](C3CCCC3)C(=O)N(C)[C@H](C(=O)N3CCOCC3)CC(=O)N(C)[C@@H](CC3CC3)C(=O)N[C@@H]([C@@H](C)CC)C(=O)N(C)CC(=O)N(C)[C@H]3C/C=C\CCN(C3=O)[C@@H](Cc3ccc(C)cc3)C(=O)N(C)CC(=O)N[C@@H](CCc3cc(F)c(C(F)(F)F)c(F)c3)C(=O)N2C1 [PP1408]
[1]; [5]
  Kd: 0.22 nM
[2]; KD ratio class
  NRAS/KRAS (ratio of KD value for NRAS to KD value for KRAS): A (a compound having 10 or more and less than 20 is denoted as A)
[3]; KD ratio class
  HRAS/KRAS (ratio of KD value for HRAS to KD value for KRAS): A (a compound having 10 or more and less than 20 is denoted as A)
[4]
  IC50: 37.6 nM

## CCOC[C@H]1C(=O)N[C@@H]([C@@H](C)OCC)C(=O)N(C)CC(=O)N(C)[C@H]2C/C=C\CCN(C2=O)[C@@H](Cc2ccc(C)cc2)C(=O)N(C)CC(=O)N[C@@H](CCc2cc(F)c(C(F)(F)F)c(F)c2)C(=O)N2C[C@@H](C)C[C@H]2C(=O)NC2(CC(C)(C)C2)C(=O)N(C)[C@@H](C2CCCC2)C(=O)N(C)[C@H](C(=O)N(C)CC)CC(=O)N1C [PP2422]
[1]; SPR, Single Cycle Kinetics
  Kd: 0.46 nM
[2]
  NRAS/KRAS (ratio of KD value for NRAS to KD value for KRAS): A (a compound having 10 or more and less than 20 is denoted as A)
[3]
  HRAS/KRAS (ratio of KD value for HRAS to KD value for KRAS): A (a compound having 10 or more and less than 20 is denoted as A)
[4]
  IC50: 117 nM

## CC[C@H](C)[C@@H]1NC(=O)[C@H](COC)N(C)C(=O)C[C@@H](C(=O)N(C)C)N(C)C(=O)[C@H](C2CCCC2)N(C)C(=O)C2(CC(C)(C)C2)NC(=O)[C@@H]2C[C@@H](OC3CCCC3)CN2C(=O)[C@H](CCc2cc(F)c(C(F)(F)F)c(F)c2)NC(=O)CN(C)C(=O)[C@H](CC2CCCCC2)N2CC/C=C\C[C@@H](C2=O)N(C)C(=O)CN(C2CC2)C1=O [PP2630]
[1]; [6]
  Kd: 3 nM
[2]
  NRAS/KRAS (ratio of KD value with respect to GDP-bound NRAS wild-type protein to KD value with respect to KRAS): A (a compound having 10 or more and less than 20 is denoted as A)
[3]
  HRAS/KRAS (ratio of KD value with respect to GDP-bound HRAS wild-type protein to KD value with respect to KRAS): B (a compound having 3 or more and less than 10 is denoted as B)
[4]
  IC50: 190 nM

## CCO[C@@H]1C[C@H]2C(=O)NC3(CCC3)C(=O)N(C)[C@@H](C3CCCC3)C(=O)N(C)[C@H](C(=O)N(C)C)CC(=O)N(C)[C@@H](Cc3cccc(C#N)c3)C(=O)N[C@@H]([C@@H](C)CC)C(=O)N(C)CC(=O)N(C)[C@H]3CCCCCN(C3=O)[C@@H](Cc3ccc(F)cc3)C(=O)N(C)CC(=O)N[C@@H](CCc3cc(F)c(C(F)(F)F)c(F)c3)C(=O)N2C1 [PP1156]
[1]; SPR, Single Cycle Kinetics
  Kd: 0.063 nM
[2]
  NRAS/KRAS (ratio of KD value for NRAS to KD value for KRAS): B (a compound having 3 or more and less than 10 is denoted as B)
[3]
  HRAS/KRAS (ratio of KD value for HRAS to KD value for KRAS): B (a compound having 3 or more and less than 10 is denoted as B)
[4]
  IC50: 33.7 nM

## CCO[C@@H]1C[C@H]2C(=O)NC3(CCC3)C(=O)N(C)[C@@H](C(CC)CC)C(=O)N(C)[C@H](C(=O)N3CCCC3)CC(=O)N(C)[C@@H](C)C(=O)N[C@@H]([C@@H](C)CC)C(=O)N(C)CC(=O)N(C)[C@H]3C/C=C\CCN(C3=O)[C@@H](CC3CCC(F)(F)CC3)C(=O)N(C)CC(=O)N[C@@H](CCc3cc(F)c(C(F)(F)F)c(F)c3)C(=O)N2C1 [PP1436]
[1]; [5]
  Kd: 0.29 nM
[2]; KD ratio class
  NRAS/KRAS (ratio of KD value for NRAS to KD value for KRAS): AA (a compound having 20 or more is denoted as AA)
[3]; KD ratio class
  HRAS/KRAS (ratio of KD value for HRAS to KD value for KRAS): A (a compound having 10 or more and less than 20 is denoted as A)
[4]
  IC50: 47.4 nM

## CCOC[C@H]1C(=O)N[C@@H]([C@@H](C)CC)C(=O)N(C2CC2)CC(=O)N(C)[C@H]2C/C=C\CCN(C2=O)[C@@H](CC2CCCCC2)C(=O)N(C)CC(=O)N[C@@H](CCc2ccc(C(F)(F)F)c(OC)c2)C(=O)N2C[C@@H](C)C[C@H]2C(=O)N(C)C2(CCC2)C(=O)N(C)[C@@H](C2CCCC2)C(=O)N(C)[C@H](C(=O)N(C)C)CC(=O)N1C [PP2373]
[1]; SPR, Single Cycle Kinetics
  Kd: 0.66 nM
[2]
  NRAS/KRAS (ratio of KD value for NRAS to KD value for KRAS): A (a compound having 10 or more and less than 20 is denoted as A)
[3]
  HRAS/KRAS (ratio of KD value for HRAS to KD value for KRAS): A (a compound having 10 or more and less than 20 is denoted as A)
[4]
  IC50: 6.5 nM

## CCCCCC[C@H]1C(=O)N[C@@H]([C@@H](C)CC)C(=O)N(C)CC(=O)N(C)[C@H]2C/C=C\CCN(C2=O)[C@@H](Cc2ccc(C(F)(F)F)cc2)C(=O)N(C)CC(=O)N[C@@H](CCc2ccc3sccc3c2)C(=O)N2C[C@H](OCC)C[C@H]2C(=O)NC2(CCC2)C(=O)N(C)[C@@H](C2CCCC2)C(=O)N(C)[C@H](C(=O)N(C)C)CC(=O)N1C [PP1259]
[1]; [5]
  Kd: 0.49 nM
[2]; KD ratio class
  NRAS/KRAS (ratio of KD value for NRAS to KD value for KRAS): A (a compound having 10 or more and less than 20 is denoted as A)
[3]; KD ratio class
  HRAS/KRAS (ratio of KD value for HRAS to KD value for KRAS): A (a compound having 10 or more and less than 20 is denoted as A)
[4]
  IC50: 62 nM

## CCOC[C@H]1C(=O)N[C@@H]([C@@H](C)CC)C(=O)N2CCC[C@H]2C(=O)N(C)[C@H]2C/C=C\CCN(C2=O)[C@@H](CC2CCCCC2)C(=O)N(C)CC(=O)N[C@@H](CCc2ccc(C(F)(F)F)c(OC)c2)C(=O)N2C[C@@H](C)C[C@H]2C(=O)N(C)C2(CCC2)C(=O)N(C)[C@@H](C2CCCC2)C(=O)N(C)[C@H](C(=O)N(C)C)CC(=O)N1C [PP2375]
[1]; SPR, Single Cycle Kinetics
  Kd: 1.1 nM
[2]
  NRAS/KRAS (ratio of KD value for NRAS to KD value for KRAS): A (a compound having 10 or more and less than 20 is denoted as A)
[3]
  HRAS/KRAS (ratio of KD value for HRAS to KD value for KRAS): B (a compound having 3 or more and less than 10 is denoted as B)
[4]
  IC50: 172 nM

## CC[C@H](C)[C@@H]1NC(=O)[C@H](CC2CCC2)N(C)C(=O)C[C@@H](C(=O)N2CCOCC2)N(C)C(=O)[C@H](C2CCCC2)N(C)C(=O)C2(CCC2)NC(=O)[C@@H]2CCCN2C(=O)[C@H](CCc2ccc(C(F)(F)F)c(Cl)c2)NC(=O)CN(C)C(=O)[C@H](Cc2ccc(C(F)(F)F)cc2)N2C[C@H](C)CC[C@@H](C2=O)N(C)C(=O)[C@@H]2CCN2C1=O [PP1345]
[1]; [5]
  Kd: 0.71 nM
[2]; KD ratio class
  NRAS/KRAS (ratio of KD value for NRAS to KD value for KRAS): A (a compound having 10 or more and less than 20 is denoted as A)
[3]; KD ratio class
  HRAS/KRAS (ratio of KD value for HRAS to KD value for KRAS): B (a compound having 3 or more and less than 10 is denoted as B)
[4]
  IC50: 34.8 nM

## CCCCCC[C@H]1C(=O)N[C@@H]([C@@H](C)CC)C(=O)N(C)CC(=O)N(C)[C@H]2C/C=C\CCN(C2=O)[C@@H](Cc2ccc(C(F)(F)F)cc2)C(=O)N(C)CC(=O)N[C@@H](CCc2ccc3sccc3c2)C(=O)N2C[C@H](OCC)C[C@H]2C(=O)NC2(CCC2)C(=O)N(C)[C@@H](C(CC)CC)C(=O)N(C)[C@H](C(=O)N(C)C)CC(=O)N1C [PP1226]
[1]; [5]
  Kd: 2.4 nM
[2]; KD ratio class
  NRAS/KRAS (ratio of KD value for NRAS to KD value for KRAS): AA (a compound having 20 or more is denoted as AA)
[3]; KD ratio class
  HRAS/KRAS (ratio of KD value for HRAS to KD value for KRAS): A (a compound having 10 or more and less than 20 is denoted as A)
[4]
  IC50: 106 nM

## CCC[C@H]1C(=O)N[C@@H](CC(C)C)C(=O)N(C2CC2)CC(=O)N(C)[C@H]2C/C=C\CCN(C2=O)[C@@H](Cc2ccc(C)cc2)C(=O)N(C)CC(=O)N[C@@H](CCc2ccc(C(F)(F)F)c(OC)c2)C(=O)N2C[C@H](OCC)C[C@H]2C(=O)NC2(CC(C)(C)C2)C(=O)N(C)[C@@H](C2CCCC2)C(=O)N(C)[C@H](C(=O)N(C)C)CC(=O)N1C [PP2510]
[1]; SPR, Single Cycle Kinetics
  Kd: 3.9 nM
[2]
  NRAS/KRAS (ratio of KD value for NRAS to KD value for KRAS): A (a compound having 10 or more and less than 20 is denoted as A)
[3]
  HRAS/KRAS (ratio of KD value for HRAS to KD value for KRAS): B (a compound having 3 or more and less than 10 is denoted as B)
[4]
  IC50: 180 nM

## CCC[C@H]1C(=O)N[C@@H](CC(C)C)C(=O)N2C[C@@H](OC)C[C@H]2C(=O)N(C)[C@H]2C/C=C\CCN(C2=O)[C@@H](Cc2ccc(C)cc2)C(=O)N(C)CC(=O)N[C@@H](CCc2cc(F)c(C(F)(F)F)c(F)c2)C(=O)N2C[C@H](OCC)C[C@H]2C(=O)NC2(CC(C)(C)C2)C(=O)N(C)[C@@H](C2CCCC2)C(=O)N(C)[C@H](C(=O)N(C)C)CC(=O)N1C [PP2553]
[1]; [6]
  Kd: 3.4 nM
[2]
  NRAS/KRAS (ratio of KD value with respect to GDP-bound NRAS wild-type protein to KD value with respect to KRAS): A (a compound having 10 or more and less than 20 is denoted as A)
[3]
  HRAS/KRAS (ratio of KD value with respect to GDP-bound HRAS wild-type protein to KD value with respect to KRAS): B (a compound having 3 or more and less than 10 is denoted as B)
[4]
  IC50: 121 nM

## CCO[C@@H]1C[C@H]2C(=O)NC3(CCC3)C(=O)N(C)[C@@H](C3CCCC3)C(=O)N(C)[C@H](C(=O)N(C)C)CC(=O)N(C)[C@@H](CC3CC3)C(=O)N[C@@H]([C@@H](C)CC)C(=O)N(C)CC(=O)N(C)[C@H]3C/C=C\CCN(C3=O)[C@@H](CC3CCCCC3)C(=O)N(C)CC(=O)N[C@@H](CCc3cc(F)c(C(F)(F)F)c(F)c3)C(=O)N2C1 [PP1446]
[1]; [5]
  Kd: 0.2 nM
[2]; KD ratio class
  NRAS/KRAS (ratio of KD value for NRAS to KD value for KRAS): A (a compound having 10 or more and less than 20 is denoted as A)
[3]; KD ratio class
  HRAS/KRAS (ratio of KD value for HRAS to KD value for KRAS): A (a compound having 10 or more and less than 20 is denoted as A)
[4]
  IC50: 32 nM
